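Assay format: 96-well plates, 48-hour exposure. TGI marks complete inhibition of growth.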
What was measured:
Assay in all cases: growth of human tumour cells (NCI), 48 h
UO-31 renal = system: UO-31 renal
HL-60(TB) leukemia = system: HL-60(TB) leukemia
HCC-2998 colon = system: HCC-2998 colon
OVCAR-3 ovarian = system: OVCAR-3 ovarian
KM12 colon = system: KM12 colon
M14 melanoma = system: M14 melanoma
COLO 205 colon = system: COLO 205 colon
U251 CNS = system: U251 CNS
EKVX NSCLC = system: EKVX NSCLC
SN12C renal = system: SN12C renal
A498 renal = system: A498 renal
NCI-H226 lung = system: NCI-H226 lung
SF-539 CNS = system: SF-539 CNS
RXF 393 renal = system: RXF 393 renal

**Q.** For `O=c1[nH]nc(Nc2ccccc2)c2nnn(C3CCCCC3)c12`, which TGI (UO-31 renal) is on record?
**A.** > 100 µM

**Q.** What about the TGI (HL-60(TB) leukemia) of the same molecule?
**A.** > 100 µM

**Q.** And the TGI (HCC-2998 colon)?
**A.** > 100 µM

**Q.** What about the TGI (OVCAR-3 ovarian) of the same molecule?
**A.** > 100 µM

**Q.** What about the TGI (KM12 colon) of the same molecule?
**A.** > 100 µM

**Q.** And the TGI (M14 melanoma)?
**A.** > 100 µM

**Q.** What about the TGI (COLO 205 colon) of the same molecule?
**A.** > 100 µM

**Q.** And the TGI (U251 CNS)?
**A.** > 100 µM

**Q.** And the TGI (EKVX NSCLC)?
**A.** > 100 µM

**Q.** What about the TGI (SN12C renal) of the same molecule?
**A.** > 100 µM

**Q.** How did the TGI (A498 renal) turn out when `O=C(CN1CCCCC1)Nc1ccc2c(c1)C1Oc3ccccc3CC1CO2` (centres undefined) was run?
**A.** 62.8 µM

**Q.** And the TGI (NCI-H226 lung)?
**A.** 55.8 µM

**Q.** What about the TGI (UO-31 renal) of the same molecule?
**A.** 72.7 µM

**Q.** What about the TGI (HL-60(TB) leukemia) of the same molecule?
**A.** > 100 µM

**Q.** What about the TGI (HCC-2998 colon) of the same molecule?
**A.** 34.4 µM

**Q.** What about the TGI (OVCAR-3 ovarian) of the same molecule?
**A.** 64.9 µM

**Q.** What about the TGI (SF-539 CNS) of the same molecule?
**A.** 36 µM

**Q.** What about the TGI (KM12 colon) of the same molecule?
**A.** 49.9 µM

**Q.** What about the TGI (M14 melanoma) of the same molecule?
**A.** 32.3 µM

**Q.** What about the TGI (COLO 205 colon) of the same molecule?
**A.** 26.2 µM

**Q.** What about the TGI (U251 CNS) of the same molecule?
**A.** 33.3 µM

**Q.** What about the TGI (EKVX NSCLC) of the same molecule?
**A.** 53.9 µM

**Q.** What about the TGI (SN12C renal) of the same molecule?
**A.** > 100 µM

**Q.** Which results are given for `C=CCN1/C(=C2\SC(=S)N(c3ccc(C)cc3)C2=O)Sc2c1ncn(C)c2=O`?
**A.** TGI (A498 renal): > 100 µM; TGI (NCI-H226 lung): > 100 µM; TGI (UO-31 renal): > 100 µM; TGI (HL-60(TB) leukemia): > 100 µM; TGI (HCC-2998 colon): > 100 µM; TGI (SF-539 CNS): > 100 µM; TGI (KM12 colon): > 100 µM; TGI (M14 melanoma): > 100 µM; TGI (COLO 205 colon): > 100 µM; TGI (U251 CNS): > 100 µM; TGI (EKVX NSCLC): > 100 µM; TGI (SN12C renal): > 100 µM

**Q.** Which results are given for `CC1(C)C2CCC1C(=O)[C@@]1(C=CC(=O)CC1)C2` (some centres undefined)?
**A.** TGI (NCI-H226 lung): > 100 µM; TGI (UO-31 renal): > 100 µM; TGI (HL-60(TB) leukemia): > 100 µM; TGI (HCC-2998 colon): > 100 µM; TGI (OVCAR-3 ovarian): > 100 µM; TGI (SF-539 CNS): > 100 µM; TGI (RXF 393 renal): > 100 µM; TGI (KM12 colon): > 100 µM; TGI (M14 melanoma): > 100 µM; TGI (COLO 205 colon): > 100 µM; TGI (U251 CNS): > 100 µM; TGI (EKVX NSCLC): > 100 µM; TGI (SN12C renal): > 100 µM

**Q.** With `O=C(c1cccnc1)N1N=C(c2ccccc2)CC1(O)c1cc(F)c(Cl)cc1Cl` (centres undefined) as the molecule, how does the TGI (NCI-H226 lung) read?
**A.** 36.3 µM

**Q.** What about the TGI (UO-31 renal) of the same molecule?
**A.** > 100 µM

**Q.** And the TGI (HL-60(TB) leukemia)?
**A.** 51.3 µM

**Q.** What about the TGI (OVCAR-3 ovarian) of the same molecule?
**A.** 24.5 µM

**Q.** What about the TGI (SF-539 CNS) of the same molecule?
**A.** 32.3 µM

**Q.** And the TGI (RXF 393 renal)?
**A.** 34.9 µM

**Q.** What about the TGI (KM12 colon) of the same molecule?
**A.** > 100 µM

**Q.** And the TGI (M14 melanoma)?
**A.** 53.7 µM

**Q.** What about the TGI (COLO 205 colon) of the same molecule?
**A.** 31 µM

**Q.** What about the TGI (U251 CNS) of the same molecule?
**A.** 32.4 µM

**Q.** And the TGI (EKVX NSCLC)?
**A.** > 100 µM

**Q.** And the TGI (SN12C renal)?
**A.** 39.6 µM

**Q.** `N#Cc1cc(Sc2ccc(N)c(C#N)c2)ccc1N` was tested. Which TGI (A498 renal) did it give?
**A.** > 100 µM

**Q.** And the TGI (NCI-H226 lung)?
**A.** 81 µM

**Q.** What about the TGI (UO-31 renal) of the same molecule?
**A.** > 100 µM

**Q.** What about the TGI (HL-60(TB) leukemia) of the same molecule?
**A.** 6.49 µM

**Q.** What about the TGI (OVCAR-3 ovarian) of the same molecule?
**A.** > 100 µM

**Q.** And the TGI (SF-539 CNS)?
**A.** 27.9 µM

**Q.** What about the TGI (RXF 393 renal) of the same molecule?
**A.** > 100 µM

**Q.** And the TGI (KM12 colon)?
**A.** 24.9 µM

**Q.** And the TGI (M14 melanoma)?
**A.** 47.8 µM

**Q.** What about the TGI (COLO 205 colon) of the same molecule?
**A.** 23.7 µM

**Q.** And the TGI (U251 CNS)?
**A.** > 100 µM

**Q.** And the TGI (EKVX NSCLC)?
**A.** 50.5 µM

**Q.** What about the TGI (SN12C renal) of the same molecule?
**A.** > 100 µM

**Q.** With `NC(=O)CC(N)C(=O)NC(Cc1ccccc1)C(=O)NC(Cc1ccccc1)NC(=O)C(Cc1c[nH]c2ccccc12)C(=O)O` (centres undefined) as the molecule, how does the TGI (A498 renal) read?
**A.** > 100 µM

**Q.** What about the TGI (NCI-H226 lung) of the same molecule?
**A.** > 100 µM

**Q.** And the TGI (UO-31 renal)?
**A.** > 100 µM

**Q.** What about the TGI (HCC-2998 colon) of the same molecule?
**A.** > 100 µM

**Q.** What about the TGI (OVCAR-3 ovarian) of the same molecule?
**A.** > 100 µM

**Q.** What about the TGI (SF-539 CNS) of the same molecule?
**A.** > 100 µM

**Q.** And the TGI (RXF 393 renal)?
**A.** > 100 µM

**Q.** And the TGI (KM12 colon)?
**A.** > 100 µM

**Q.** What about the TGI (M14 melanoma) of the same molecule?
**A.** > 100 µM

**Q.** What about the TGI (COLO 205 colon) of the same molecule?
**A.** > 100 µM

**Q.** And the TGI (U251 CNS)?
**A.** > 100 µM

**Q.** What about the TGI (EKVX NSCLC) of the same molecule?
**A.** > 100 µM

**Q.** What about the TGI (SN12C renal) of the same molecule?
**A.** > 100 µM

**Q.** Which TGI (A498 renal) does the source give for `CC(=O)O[C@H]1C[C@@H](OC(C)=O)[C@@](C)(O)[C@@H]2[C@@H](OC(C)=O)[C@@]3(O)[C@H](/C=C(/CO)[C@H]4O[C@H]4[C@@H](OC(C)=O)[C@@]12C)OC(=O)[C@@H]3C` here?
**A.** > 25 µM

**Q.** What about the TGI (NCI-H226 lung) of the same molecule?
**A.** > 25 µM

**Q.** And the TGI (UO-31 renal)?
**A.** > 25 µM

**Q.** What about the TGI (HCC-2998 colon) of the same molecule?
**A.** > 25 µM

**Q.** And the TGI (OVCAR-3 ovarian)?
**A.** 15.5 µM

**Q.** What about the TGI (RXF 393 renal) of the same molecule?
**A.** 10.7 µM

**Q.** What about the TGI (KM12 colon) of the same molecule?
**A.** > 25 µM

**Q.** What about the TGI (M14 melanoma) of the same molecule?
**A.** > 25 µM

**Q.** What about the TGI (COLO 205 colon) of the same molecule?
**A.** > 25 µM

**Q.** And the TGI (U251 CNS)?
**A.** 21.4 µM

**Q.** And the TGI (EKVX NSCLC)?
**A.** > 25 µM

**Q.** And the TGI (SN12C renal)?
**A.** > 25 µM

**Q.** For `CCOC(=O)CCN1C(=O)C(=O)N(c2ccc(OC)cc2)C1=S`, which TGI (A498 renal) is on record?
**A.** > 100 µM

**Q.** What about the TGI (NCI-H226 lung) of the same molecule?
**A.** > 100 µM

**Q.** What about the TGI (UO-31 renal) of the same molecule?
**A.** > 100 µM

**Q.** What about the TGI (HL-60(TB) leukemia) of the same molecule?
**A.** > 100 µM

**Q.** And the TGI (HCC-2998 colon)?
**A.** > 100 µM

**Q.** What about the TGI (SF-539 CNS) of the same molecule?
**A.** > 100 µM

**Q.** And the TGI (RXF 393 renal)?
**A.** > 100 µM

**Q.** And the TGI (KM12 colon)?
**A.** > 100 µM

**Q.** And the TGI (COLO 205 colon)?
**A.** > 100 µM

**Q.** And the TGI (U251 CNS)?
**A.** > 100 µM

**Q.** What about the TGI (EKVX NSCLC) of the same molecule?
**A.** > 100 µM

**Q.** And the TGI (SN12C renal)?
**A.** > 100 µM

**Q.** With `Cc1c(Cl)cccc1N=NC(=O)NNc1cccc(Cl)c1C` as the molecule, how does the TGI (A498 renal) read?
**A.** 27.7 µM

**Q.** What about the TGI (NCI-H226 lung) of the same molecule?
**A.** 32.6 µM

**Q.** And the TGI (UO-31 renal)?
**A.** 26.3 µM

**Q.** And the TGI (HL-60(TB) leukemia)?
**A.** 38.1 µM

**Q.** And the TGI (HCC-2998 colon)?
**A.** 31.1 µM

**Q.** And the TGI (OVCAR-3 ovarian)?
**A.** 31.4 µM

**Q.** What about the TGI (M14 melanoma) of the same molecule?
**A.** 35.7 µM

**Q.** What about the TGI (U251 CNS) of the same molecule?
**A.** 29.7 µM

**Q.** And the TGI (SN12C renal)?
**A.** 32.4 µM

Reference: PubChem BioAssay (NCI)
